Measured values from patent US9981923B2, “1,2,3 Triazole antifungal agents and preparation thereof” (COUNCIL OF SCIENTIFIC & INDUSTRIAL RESEARCH, priority 2014, dated 2018).
In brackets after ≈: the same amount, converted by molar mass. Where two headings read alike, the source gives them in different places.

Assays:
[1] = system: Aspergillus fumigatus MCC 1046; assay: Antifungal susceptibility by microbroth dilution (CLSI); assay type: cell-based
Protocol: (§1) The synthesized compounds were evaluated for antifungal susceptibility by microbroth dilution method according to the recommendations of the Clinical Laboratory Standards Institute (CLSI 2008). Briefly, appropriate amount of compounds were dissolved in dimethyl sulfoxide to get 100× final strength. The stock was then diluted 1:50 in RPMI/YPG medium and 200 μl from this was added to the first row of a 96-well microtitre plate. The compounds were serially diluted two fold in successive wells to get a range of 1-128 μg/ml. Fungal yeast cells (˜2×10^3 cfu/mL), freshly grown in YPG broth in logarithmic phase, were suspended in the medium and inoculated (100 μl) in the wells of the plate. For filamentous fungi, 2×10^4 spores/mL were added. The microtitre plate was incubated for 48 h, and the absorbance was measured at 600 nm by using microtitre plate reader to assess cell growth.

[2] = system: Aspergillus niger ATCC 10578; assay: as above; assay type: cell-based
Protocol: as §1

[3] = system: Candida albicans ATCC 10231; assay: as above; assay type: cell-based; settings: Table 1, 48 h, >90% inhibition of growth
Protocol: as §1

[4] = system: Candida albicans ATCC 24433; assay: as above; assay type: cell-based; settings: Table 1, 48 h, >90% inhibition of growth, range 1-128 μg/ml
Protocol: as §1

[5] = system: Candida glabrata NCYC 388; assay: as above; assay type: cell-based
Protocol: as §1

[6] = system: Cryptococcus neoformans ATCC 34664; assay: as above; assay type: cell-based; settings: Table 1, 48 h, >90% inhibition of growth
Protocol: as §1

[7] = system: ergosterol; assay: Effect of the compounds on sterol profile (spectrophotometric ergosterol quantitation); assay type: cell-based, C. albicans ATCC 24433; settings: for ergosterol depletion (sterol profile, height of absorbance peaks 220-300 nm): C. albicans ATCC 24433, 24 h, 0.5 MIC and MIC of the lead compounds; for inhibition of lanosterol 14 α-demethylase enzyme (concluded from ergosterol depletion): C. albicans ATCC 24433 sterol profile
Protocol: Inhibition of lanosterol 14 α-demethylase by azoles results in depletion of ergosterol. The depletion can be quantified by spectrophotometry. Briefly, Overnight grown C. albicans ATCC 24433 (1×10^6 cfu/ml) cells were inoculated in a series of flasks containing 50 ml of Yeast extract Peptone Glucose (YPG) broth containing […] of fluconazole per ml as well as 0.5 MIC and MIC of the lead compounds. The cultures were incubated for 24 h with shaking at 30° C. The stationary-phase cells were harvested by centrifugation […] and washed once with sterile distilled water. The net wet weight of the cell pellet was determined. Three milliliters of 25% alcoholic potassium hydroxide solution (25 g of […] and 35 ml of sterile distilled water, brought to 100 ml with 100% ethanol), was added to 125 mg of pellet and vortex mixed for 1 min. Cell suspensions were transferred to sterile borosilicate glass screw-cap tubes and were incubated in an 85° C. water bath for 1 h. Following incubation, tubes were allowed to cool to room temperature. Sterols were then extracted by addition of a mixture of 1 ml of sterile distilled water and 3 ml of n-heptane followed by vigorous vortex mixing for 3 min. The heptane layer was transferred to a clean borosilicate glass screw-cap tube. The sterol extract was scanned spectrophotometrically between 220 and 300 nm with a Spectrophotometer.

[8] = system: reactive oxygen species (ROS); assay: ROS production using dichlorofluorescin diacetate dye; assay type: cell-based; settings: C. albicans ATCC 24433, dichlorofluorescin diacetate dye
Protocol: Apart from lanosterol 14 a-demethylase inhibition, few azoles like miconazole are known to exert their antifungal action by reactive oxygen species (ROS) generation. Therefore ROS production in C. albicans ATCC 24433 was evaluated for these compounds by using dichlorofluorescin diacetate dye. […] ROS can damage a wide range of molecules, including nucleic acids, proteins and lipids, can cause apoptosis, necrotic death and with this wide range of targets it is difficult to determine which events lead to loss of viability of cells following damage.

[9] = system: pathogenic fungi; assay: Antifungal activity, overall assessment of the microbroth dilution results; assay type: cell-based; settings: based on the MIC results
Protocol: as §1

[10] = Aspergillus fumigatus, MCC1046, Table 1, 48 h, >90% inhibition of growth, read-out: MIC
[11] = Aspergillus niger, ATCC10578, Table 1, 48 h, >90% inhibition of growth, read-out: MIC
[12] = Candida albicans, ATCC10231, read-out: MIC
[13] = Candida albicans, ATCC24433, read-out: MIC
[14] = Nakaseomyces glabratus, NCYC388, Table 1, 48 h, >90% inhibition of growth, read-out: MIC
[15] = Cryptococcus neoformans, ATCC34664, read-out: MIC
[16] = Table 1, 48 h, >90% inhibition of growth

SMILES	MIC [1, 10] [µg/mL]	MIC [2, 11] [µg/mL]	MIC [3, 12] [µg/mL]	MIC [4, 13] [µg/mL]	MIC [5, 14] [µg/mL]	MIC [6, 15] [µg/mL]	ergosterol depletion (sterol profile, height of absorbance peaks 220-300 nm) [7]	ROS generation [8]	antifungal activity, overall assessment [9]	inhibition of lanosterol 14 α-demethylase enzyme (concluded from ergosterol depletion) [7]	melting point [°C]	also measured
Cc1cc(C)cc(C(O)c2cn(-c3ccc(Cl)cc3O)nn2)c1 (centres unmarked) [Compound 1ab, 5-Chloro-2-(4-((3,5-dimethylphenyl)(hydroxy)methyl)-1H-1,2,3-triazol-1-yl)phenol]	32 (≈ 97 µM)	> 128	32 (≈ 97 µM)	32 (≈ 97 µM)	32 (≈ 97 µM)	32 (≈ 97 µM)	no ergosterol depletion was observed	dose dependent increase in ROS generation	promising molecules			
CCC(O)(c1ccccc1)c1cn(-c2cc(Cl)ccc2O)nn1 (centres unmarked) [Compound 1da]							no ergosterol depletion was observed	dose dependent increase in ROS generation	promising molecules	potent inhibitors		MIC [1, 16]: >128 µg/mL; MIC [2, 16]: >128 µg/mL; MIC [3]: 16 µg/mL (≈ 48.5 µM); MIC [4]: 16 µg/mL (≈ 48.5 µM); MIC [5, 16]: 8 µg/mL (≈ 24.3 µM); MIC [6]: 16 µg/mL (≈ 48.5 µM)
CCC(O)(c1ccccc1)c1cn(-c2ccc(Cl)cc2O)nn1 (centres unmarked) [Compound 1db]									promising molecules			MIC [1, 16]: >128 µg/mL; MIC [2, 16]: >128 µg/mL; MIC [3]: 32 µg/mL (≈ 97 µM); MIC [4]: 16 µg/mL (≈ 48.5 µM); MIC [5, 16]: 8 µg/mL (≈ 24.3 µM); MIC [6]: 16 µg/mL (≈ 48.5 µM)
CC(O)(c1ccccc1)c1cn(-c2cc(Cl)ccc2O)nn1 (centres unmarked) [Compound 2ca]										potent inhibitors		
CC(O)(c1ccccc1)c1cn(-c2ccc(Cl)cc2O)nn1 (centres unmarked) [Compound 2cb, 5-Chloro-2-(4-(1-hydroxy-1-phenylethyl)-1H-1,2,3-triazol-1-yl)phenol]							no ergosterol depletion was observed				232 to 234	
CC(O)(Cc1cn(-c2cc(Cl)ccc2O)nn1)c1ccccc1 (centres unmarked) [Compound 2fa, 4-Chloro-2-(4-(2-hydroxy-2-phenylpropyl)-1H-1,2,3-triazol-1-yl)phenol]	8 (≈ 24.3 µM)	> 128	16 (≈ 48.5 µM)	16 (≈ 48.5 µM)	8 (≈ 24.3 µM)	16 (≈ 48.5 µM)		dose dependent increase in ROS generation	promising molecules			
CCC(O)(Cc1cn(-c2cc(Cl)ccc2O)nn1)c1ccccc1 (centres unmarked) [Compound 2ga, 4-Chloro-2-(4-(2-hydroxy-2-phenylbutyl)-1H-1,2,3-triazol-1-yl)phenol]	32 (≈ 93.1 µM)	> 128	16 (≈ 46.5 µM)	16 (≈ 46.5 µM)	8 (≈ 23.3 µM)	16 (≈ 46.5 µM)			promising molecules	potent inhibitors	153 to 155	
CCC(O)(Cc1cn(-c2ccc(Cl)cc2O)nn1)c1ccccc1 (centres unmarked) [Compound 2gb, 5-Chloro-2-(4-(2-hydroxy-2-phenylbutyl)-1H-1,2,3-triazol-1-yl)phenol]	8 (≈ 23.3 µM)	> 128	16 (≈ 46.5 µM)	16 (≈ 46.5 µM)	8 (≈ 23.3 µM)	8 (≈ 23.3 µM)	most effective		promising molecules		129 to 131	
OC(Cn1cncn1)(Cn1cncn1)c1ccc(F)cc1F [Fluconazole, reference compound]			8 (≈ 26.1 µM)	2 (≈ 6.53 µM)		32 (≈ 104 µM)	dose-dependent decrease in the height of the absorbance peaks					MIC ([1]; Aspergillus fumigatus, MCC1046, 48 h): > 128 µg/mL; MIC ([2]; Aspergillus niger, ATCC10578, 48 h): > 128 µg/mL; MIC ([5]; Nakaseomyces glabratus, NCYC388, 48 h): > 128 µg/mL
